According to US5603949A, “Use of a tocopherol phosphate or one of its derivatives, for the preparation of cosmetic or pharmaceutical compositions and compositions so obtained” (LVMH Recherche, priority 1991, dated 1997):
Structures can show the parent of a compound that is named as a salt.

Target: T1, phospholipase A2 (Rattus norvegicus, UniProt P14423)
T1 construct: The phospholipase A2 is isolated from the peritoneal cavity of a rat; from tissue; host or cells: peritoneal cavity of a rat
T1 sequence (P14423 22-146): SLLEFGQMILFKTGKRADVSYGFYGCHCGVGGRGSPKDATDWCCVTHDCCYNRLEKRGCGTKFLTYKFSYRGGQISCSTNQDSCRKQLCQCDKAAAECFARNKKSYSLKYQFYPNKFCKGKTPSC
Test: inhibition of phospholipase A2 (PLA2): release of 14C-labeled fatty acid from phosphatidylethanolamine
Assay type: biochemical
Settings: PLA2 isolated from peritoneal cavity of a rat; 0.1M Tris-HCl, pH=9, Ca++; 20 min preincubation, then 20 min with substrate, 37° C.; read-out: 50% inhibitory concentration (IC50) (converted)
Procedure: The inhibition of phospholipase A2, which is involved in the production of allergy and inflammation mediators, especially in the inflammatory reaction of skin allergies, is measured according to the protocol described by H. W. Chang, I. Kudo, M. Tomita and K. Inoue in J. Biochem. (Tokyo) 102(1): 147-154 (1987).
The phospholipase A2 is isolated from the peritoneal cavity of a rat. PLA2 hydrolyzes the ester linkage in the 2-position of the glycerol of a phosphatidylethanolamine, this position being occupied by a fatty acid residue labeled with carbon 14. The radioactive fatty acid released will be extracted and then quantitatively analyzed by liquid scintillation. In the presence of the PLA2 inhibitor, this hydrolysis will be reduced and less released fatty acid will therefore be determined.
In practice, the PLA2 and the test product are placed in a 0.1M Tris-HCl buffer, pH=9, containing 4 mmol of Ca^++ and the mixture is incubated for 20 min at 37° C., with agitation. After this contact time, the labeled phosphatidylethanolamine is added and incubation is continued for 20 min at 37° C., with agitation, to allow the hydrolysis of this substrate. n-Heptane is then used to extract the labeled fatty acid released during the hydrolysis, the latter then being quantitatively analyzed by liquid scintillation. […]

`Cc1cc(OP(=O)(O)O)cc2c1OC(C)(CCCC(C)CCCC(C)CCCC(C)C)CC2` (stereo not shown) [disodium salt of delta-tocopherol phosphate] was tested, and the IC50 was 20.7 µM.
